From patent publication US20220387604A1, “SELECTIVE DUAL HISTONE DEACETYLASE 6/8 (HDAC6/8) DEGRADERS AND METHODS OF USE THEREOF” (DANA-FARBER CANCER INSTITUTE, INC., priority 2019, published 2022) come the findings set out here.

In one assay the test system is HDAC6/8. The assay is described as follows: Quantitative proteomics of cellular protein abundance in Kelly cells: HDAC6/8. The note with it: moderated t-test, scatter plots FIG. 2A-2C, 4A-4B. In kind it is cell-based, human. As for the experimental part:
Lysis buffer (8 M Urea, 50 mM NaCl, 50 mM 4-(2hydroxyethyl)-1-piperazineethanesulfonic acid (EPPS) pH 8.5, protease and phosphatase inhibitors from Roche®) were added to the cell pellets and homogenized by 20 passes through a 21 gauge (1.25 in. long) needle to achieve a cell lysate with a protein concentration between 1-4 mg mL^−1. A micro-BCA assay (Pierce™) was used to determine the final protein concentration in the cell lysate. 200 μg of protein for each sample were reduced and alkylated as described in Donovan et al., Elife 7:e38430 (2018).
Proteins were precipitated using methanol/chloroform. Four volumes of methanol were added to the cell lysate, followed by one volume of chloroform, and finally three volumes of water. The mixture was vortexed and centrifuged to separate the chloroform phase from the aqueous phase. The precipitated protein was washed with three volumes of methanol, centrifuged and the resulting washed precipitated protein was allowed to air dry. The precipitated protein was resuspended in 4 M Urea, 50 mM HEPES pH 7.4, followed by dilution to 1 M urea with the addition of 200 mM EPPS, pH 8. Proteins were first digested with LysC (1:50; enzyme:protein) for 12 hours at room temperature. The LysC digestion was diluted to 0.5 M Urea with 200 mM EPPS pH 8 followed by digestion with trypsin (1:50; enzyme:protein) for 6 hours at 37° C. Tandem mass tag (TMT) reagents (Thermo Fisher Scientific) were dissolved in anhydrous acetonitrile (ACN) according to manufacturer's instructions.
Anhydrous ACN was added to each peptide sample to a final concentration of 30% v/v, and labeling was induced with the addition of TMT reagent to each sample at a ratio of 1:4 peptide:TMT label. The 10-plex labeling reactions were performed for 1.5 hours at room temperature and the reaction quenched by the addition of hydroxylamine to a final concentration of 0.3% for 15 minutes at room temperature. The sample channels were combined at a 1:1:1:1:1:1:1:1:1:1:1 ratio, desalted using C18 solid phase extraction cartridges (Waters®) and analyzed by LC-MS for channel ratio comparison. Samples were then combined using the adjusted volumes determined in the channel ratio analysis and dried down in a speed vacuum. The combined sample was then resuspended in 1% formic acid, and acidified (pH 2-3) before being subjected to desalting with C18 SPE (Sep-Pak®, Waters®). Samples were then offline fractionated into 96 fractions by high pH reverse-phase HPLC (Agilent® LC1260) through an aeris peptide xb-c18 column (Phenomenex®) with mobile phase A containing 5% acetonitrile and 10 mM NH4HCO3 in LC-MS grade H2O, and mobile phase B containing 90% acetonitrile and 10 mM NH4HCO3 in LC-MS grade H2O (both pH 8.0). The 96 resulting fractions were then pooled in a non-continuous manner into 24 fractions and these fractions were used for subsequent mass spectrometry analysis.
Data were collected using an Orbitrap Fusion™ Lumos™ mass spectrometer (Thermo Fisher Scientific, San Jose, Calif., USA) coupled with a Proxeon EASY-nLC™ 1200 LC pump (Thermo Fisher Scientific). Peptides were separated on an EasySpray™ ES803 75 μm inner diameter microcapillary column (ThermoFisher Scientific).
Each analysis used an MS3-based TMT method as described in McAlister et al., Anal. Chem. 86(14):7150-7158 (2014). The data were acquired using a mass range of m/z 340-1350, resolution 120,000, automatic gain control (AGC) target 1×10^6, maximum injection time 100 ms, dynamic exclusion of 120 seconds for the peptide measurements in the Orbitrap Fusion™ Lumos™ mass spectrometer. Data dependent MS2 spectra were acquired in the ion trap with a normalized collision energy (NCE) set at 55%, AGC target set to 1.5×10^5 and a maximum injection time of 150 ms. […]

For assay [1], the target named is T1, full length human HDAC8-EGFP (Homo sapiens, UniProt Q9BY41).
T1 construct: Cells stably expressing the full length human HDAC8-EGFP with mCherry reporter; expressed in transfected cells; Cilantro2 vector (Addgene, 74450)
T1 sequence (Q9BY41 1-377): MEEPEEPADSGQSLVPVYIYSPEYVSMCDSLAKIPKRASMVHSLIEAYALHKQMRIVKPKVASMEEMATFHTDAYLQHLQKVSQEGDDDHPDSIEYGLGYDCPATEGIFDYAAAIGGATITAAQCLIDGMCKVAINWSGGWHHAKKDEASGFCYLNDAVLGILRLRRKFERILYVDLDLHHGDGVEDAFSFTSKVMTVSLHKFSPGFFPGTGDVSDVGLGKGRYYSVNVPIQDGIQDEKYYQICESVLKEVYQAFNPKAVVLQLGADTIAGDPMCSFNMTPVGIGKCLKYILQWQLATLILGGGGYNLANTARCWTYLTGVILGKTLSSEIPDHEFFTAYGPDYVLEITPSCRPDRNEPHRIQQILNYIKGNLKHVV
The assay is described as follows: HDAC8 reporter assay (HDAC8-EGFP with mCherry reporter). In kind it is cell-based. The note with it: 5 hour treatment, FIG. 6; hook effect at higher concentrations. As for the experimental part: Cells stably expressing the full length human HDAC8-EGFP with mCherry reporter in Cilantro2 vector (Addgene, 74450) were seeded at 30-50% confluency in 384-well plates with 50 μL FluoroBrite™ DMEM media (Thermo Fisher Scientific, A18967) containing 10% FBS per well a day before compound treatment. Compounds were dispensed using a D300e Digital Dispenser (HP), normalized to 0.5% DMSO, and incubated with cells for 5 hours. The assay plate was imaged immediately using an Acumen® High Content Imager (TTP Labtech) with 488 nm and 561 nm lasers in […] per well format. The resulting images were analyzed using CellProfiler™.
A series of image analysis steps (‘image analysis pipeline’) was constructed. First, the red and green channels were aligned and cropped to target the middle of each well (to avoid analysis of heavily clumped cells at the edges), and a background illumination function was calculated for both red and green channels of each well individually and subtracted to correct for illumination variations across the 384-well plate from various sources of error. An additional step was then applied to the green channel to suppress the analysis of large auto fluorescent artifacts and enhance the analysis of cell specific fluorescence by way of selecting for objects under a given size, 30 A.U., and with a given shape, speckles. mCherry-positive cells were then identified in the red channel filtering for objects between 8-60 pixels in diameter and using intensity to distinguish between clumped objects. The green channel was then segmented into GFP positive and negative areas and objects were labeled as GFP positive if at least 40% of it overlapped with a GFP positive area. The fraction of GFP-positive cells/mCherry-positive cells in each well was then calculated, and the green and red images were rescaled for visualization. The values for the concentrations that lead to a 50% degradation (DC50) were calculated using the nonlinear fit variable slope model in GraphPad Prism software.

`O=C(/C=C/c1ccc(CN(CCOCCOCCOCCOCCNc2cccc3c2C(=O)N(C2CCC(=O)NC2=O)C3=O)CCc2c[nH]c3ccccc23)cc1)NO` (stereo not drawn) [Compound 5, (E)-3-(4-(2-(2-(1H-indol-3-yl)ethyl)-16-((2-(2,6-dioxopiperidin-3-yl)-1,3-dioxoisoindolin-4-yl)amino)-5,8,11,14-tetraoxa-2-azahexadecyl)phenyl)-N-hydroxyacrylamide]: the “reduction in HDAC6/8 protein levels compared to DMSO treated cells” value with HDAC6/8 is “significant reduction”. Besides, in assay [1], the “degradation of GFP tagged HDAC8 in the reporter cell lines” value is given as “degradation of GFP tagged HDAC8”.
As to `O=C(/C=C/c1ccc(CN(CCOCCOCCOCCNc2cccc3c2C(=O)N(C2CCC(=O)NC2=O)C3=O)CCc2c[nH]c3ccccc23)cc1)NO` (stereo not drawn) [Compound 4, (E)-3-(4-(2-(2-(1H-indol-3-yl)ethyl)-13-((2-(2,6-dioxopiperidin-3-yl)-1,3-dioxoisoindolin-4-yl)amino)-5,8,11-trioxa-2-azatridecyl)phenyl)-N-hydroxyacrylamide], the “degradation of GFP tagged HDAC8 in the reporter cell lines” value in assay [1] is listed as “degradation of GFP tagged HDAC8”.
